According to US20240182465A1 (GENFLEET THERAPEUTICS (SHANGHAI) INC., priority 2021, published 2024):
Structures can show the parent of a compound that is named as a salt.

What was measured:
HPK1 [1] = biological target: T1, HPK1 (Homo sapiens, UniProt Q92918); test: HPK1 kinase activity assay (ADP-Glo); conditions: HPK1 Kinase activity IC50 (nM), 1 nM HPK1, 10 μM ATP, 0.1 μg/μL MBP
T1 sequence (Q92918 1-346 limits assumed): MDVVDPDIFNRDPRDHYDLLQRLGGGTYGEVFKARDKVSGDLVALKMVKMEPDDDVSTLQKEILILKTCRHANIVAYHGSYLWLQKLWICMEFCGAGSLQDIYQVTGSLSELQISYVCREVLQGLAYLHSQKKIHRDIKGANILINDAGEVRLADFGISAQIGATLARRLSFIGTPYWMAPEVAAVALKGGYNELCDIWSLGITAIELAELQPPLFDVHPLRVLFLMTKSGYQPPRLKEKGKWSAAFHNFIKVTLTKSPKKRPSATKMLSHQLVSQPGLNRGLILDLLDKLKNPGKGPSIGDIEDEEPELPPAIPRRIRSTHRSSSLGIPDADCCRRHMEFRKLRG

HPK1 [2] = biological target: HPK1 (Homo sapiens, UniProt Q92918); test: SLP76 phosphorylation assay (intracellular HPK1 inhibitory activity, p-SLP76 Ser376 sandwich ELISA); conditions: p-SLP76 IC50(nM), Jurkat, Clone E6-1 cells; 1 h compound pre-incubation, anti-CD3 beads stimulation 20 min; SLP76 phosphorylation at S376
Target sequence in this assay (Q92918 whole entry): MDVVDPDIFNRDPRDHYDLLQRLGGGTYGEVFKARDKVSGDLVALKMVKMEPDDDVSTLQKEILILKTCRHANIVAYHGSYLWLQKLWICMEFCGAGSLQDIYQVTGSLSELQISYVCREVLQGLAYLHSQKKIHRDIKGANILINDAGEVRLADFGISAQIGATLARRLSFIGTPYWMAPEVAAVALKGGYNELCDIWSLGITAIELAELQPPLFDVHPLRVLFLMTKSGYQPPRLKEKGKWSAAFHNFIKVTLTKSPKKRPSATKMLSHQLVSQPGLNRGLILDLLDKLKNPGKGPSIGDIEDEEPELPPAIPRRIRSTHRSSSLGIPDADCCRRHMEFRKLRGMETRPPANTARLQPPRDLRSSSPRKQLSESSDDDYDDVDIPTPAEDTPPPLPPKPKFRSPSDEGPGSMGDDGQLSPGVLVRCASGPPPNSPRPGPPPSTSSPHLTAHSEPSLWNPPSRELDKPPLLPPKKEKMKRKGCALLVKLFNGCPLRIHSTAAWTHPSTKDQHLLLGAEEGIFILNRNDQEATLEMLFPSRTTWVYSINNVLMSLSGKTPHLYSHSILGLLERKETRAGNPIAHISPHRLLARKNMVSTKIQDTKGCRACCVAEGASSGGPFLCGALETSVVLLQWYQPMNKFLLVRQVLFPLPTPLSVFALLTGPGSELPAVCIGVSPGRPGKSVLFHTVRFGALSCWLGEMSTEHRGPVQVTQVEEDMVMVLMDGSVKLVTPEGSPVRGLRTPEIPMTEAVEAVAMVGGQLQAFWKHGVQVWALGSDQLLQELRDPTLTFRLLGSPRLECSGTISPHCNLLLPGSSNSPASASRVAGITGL
Protocol: Intracellular HPK1 inhibitory activity was tested by the detection of SLP76 phosphorylation at S376.
Preparation of 1000× drug stock plate: a 1000× compound stock plate was prepared. […] The compound stock plate was sealed with a sealing film and stored in a −20° C. refrigerator for later use.
Preparation of Beads wash buffer: 0.1 mL FBS and 0.4 mL 0.5 M EDTA (with a final concentration of 2 mM) were added to 100 mL PBS and stored in a 4° C. refrigerator for later use.
100× Protease Inhibitor Cocktail in 1/20 total volume was added and stored on wet ice for later use. The buffer was ready to use.
Cell inoculation and dosing: the 1000× drug stock plate was taken and melted at room temperature in the dark. […] Jurkat cells in the logarithmic growth phase were selected and collected. […] The cells were inoculated into a 96-well plate (the volume was 90 μL per well), and a blank control well (without cells inoculation, and in which 110 μL of medium was added) was set. 10 μL of a drug-containing culture medium (10×) was transferred from the 10× drug intermediate plate into the 96-well cell plate (with a final concentration of 0.1% DMSO), and set a DMSO control group (in which 0.1% DMSO was added to the treated cells), a stimulated control group (in which 10 μL of culture medium was added to treat cells) and an unstimulated group (in which 10 μL of culture medium was added to treat cells). The wells were duplicated, gently patted, mixed, and then placed into a 5% CO2 incubator at 37° C. for 1 h.
Anti-CD3 beads stimulation: Dynabeads anti-human CD3 was taken, shaken, and mixed for 60 s. The required volume of beads was pipetted, and an equal volume or at least 1 mL of washing solution was added to wash once. Fresh complete medium was then added to resuspend and adjust the density of the beads to 4×10^7/mL, and the beads were placed on ice for later use. At the end of drug pre-incubation, the cell culture plate was taken out. 10 μL Dynabeads anti-human CD3 was added to each well to treat the cells, and 10 μL the culture medium was added to the unstimulated group. The cell culture plate was shaken to mix well at 2500 rpm for 10 s, and then placed into a 5% CO2 incubator at 37° C. and continued to culture for 20 min.
Detection of p-SLP76 protein level. PathScan Phospho-SLP-76 (Ser376) Sandwich ELISA Kit was applied to detect p-SLP76 protein level. At the end of the Anti-CD3 beads stimulation, the cell culture plate was removed from the incubator. […] After lysis, the cell culture plate was centrifuged at 4° C., 400×g for 5 min. 25 μL of sample and 75 μL of sample diluent were added to each well, and the plate was placed in a 5% CO2 incubator at 37° C. for 2 h. The subsequent detection steps were carried out following the kit instructions, and the absorbance (OD value) of each well was read at 450 nm by a microplate reader.

| Compound | IC50 (HPK1 [1]) | IC50 (HPK1 [2]) |
| --- | --- | --- |
| Cc1c[nH]c2ncc(-c3cc4c(c([C@@H]5CCCN5)c3)CN(C(=O)[C@@H]3CCOC3)CC4)cc12 [Compound Z219-1, (S)-(6-(3-methyl-1H-pyrrolo[2,3-b]pyridin-5-yl)-8-(pyrrolidin-2-yl)-3,4-dihydroisoquinolin-2(1H)-yl) ((R)-tetrahydrofuran-3-yl)methanone] | 0.42 nM | 174 nM |
| Cc1c[nH]c2ncc(-c3cc4c(c([C@@H]5CCCN5)c3)CN(C(=O)N3CCO[C@H](C)C3)CC4)cc12 [Compound Z359-2, (6-(3-methyl-1H-pyrrolo[2,3-b]pyridin-5-yl)-8-((S)-pyrrolidin-2-yl)-3,4-dihydroisoquinolin-2(1H)-yl) ((R)-2-methylmorpholin)methanone] | 0.36 nM | 98.1 nM |
| C=C1COCc2c(cc(-c3cnc4[nH]cc(C)c4c3)cc2[C@@H]2CCCN2)C1 [Compound Z230, (S)-3-methyl-5-(4-methylene-9-(pyrrolidin-2-yl)-1,3,4,5-tetrahydrobenzo[c]oxepin-7-yl)-1H-pyrrolo[2,3-b]pyridine] | 1.04 nM | 438 nM |
| Cc1c[nH]c2ncc(-c3cc4c(c([C@@H]5CCCN5)c3)CN(C(=O)c3cnn(C5CC5)c3C)CC4)cc12 [Compound Z346, (S)-(1-cyclopropyl-5-methyl-1H-pyrazol-4-yl)-[6-(3-methyl-1H-pyrrolo[2,3-b]pyridin-5-yl)-8-[pyrrolidin-2-yl]-3,4-dihydroisoquinolin-2(1H)-yl]methanone] | 0.43 nM | 226 nM |
| Cc1c[nH]c2ncc(-c3cc([C@@H]4CCCN4)c4ccccc4n3)cc12 [Compound Z136, (S)-2-(3-methyl-1H-pyrrolo[2,3-b]pyridin-5-yl)-4-(pyrrolidin-2-yl)quinoline] | 31.2 nM | 7910 nM |
| Cc1ncc(C(=O)N2CCc3cc(-c4cnc5[nH]cc(C)c5c4)cc([C@@H]4CCCN4)c3C2)c(C(F)(F)F)n1 [Compound Z349, (S)-(6-(3-methyl-1H-pyrrolo[2,3-b]pyridin-5-yl)-8-(pyrrolidin-2-yl)-3,4-dihydroisoquinolin-2(1H)-yl) (2-methyl-4-(trifluoromethyl)pyrimidin-5-yl)methanone] | 0.47 nM | 240 nM |
| CCN1Cc2c(cc(-c3cnc4[nH]cc(C)c4c3)cc2[C@@H]2CCCN2)CC1=O [Compound Z138, (S)-2-ethyl-6-(3-methyl-1H-pyrrolo[2,3-b]pyridin-5-yl)-8-(pyrrolidin-2-yl)-1,4-dihydroisoquinolin-3(2H)-one] | 0.81 nM | 132 nM |
| c1cn2ccc(-c3c[nH]c4ncc(-c5cc6c(c([C@@H]7CCCN7)c5)COCC6)cc34)cc2n1 [Compound Z323] | 0.49 nM | 204 nM |
| CN(C)C(=O)c1ccc(-c2c[nH]c3ncc(-c4cc5c(c([C@@H]6CCCN6)c4)COCC5)cc23)cn1 [Compound Z54-1, (S)—N,N-dimethyl-5-(5-(8-(pyrrolidin-2-yl)isochroman-6-yl)-1H-pyrrolo[2,3-b]pyridin-3-yl)pyridine carboxamide] | 0.6 nM | 401 nM |
| Cc1c[nH]c2ncc(-c3cc4c(c([C@@H]5CCCN5)c3)COCC4)cc12 (single isomer, unassigned) [Compound Z97-2] | 0.67 nM | 164 nM |
| Cc1c[nH]c2ncc(-c3cc4c(c([C@@H]5COCCN5)c3)CN(S(C)(=O)=O)CC4)cc12 [Compound Z316, 2-(methyldioxo-λ6-sulfanyl)-6-(3-methyl-1H-pyrrolo[2,3-b]pyridin-5-yl)-8-[(3R)-1,4-oxazecyclohex-3-yl]-1,2,3,4-tetrahydroisoquinoline] | 0.74 nM | 314 nM |
| Cc1cc(N2CCc3cc(-c4cnc5[nH]cc(C)c5c4)cc([C@@H]4CCCN4)c3C2)ccn1 [Compound Z320, (S)-6-(3-methyl-1H-pyrrolo[2,3-b]pyridin-5-yl)-2-(2-methylpyridin-4-yl)-8-(pyrrolidin-2-yl)-1,2,3,4-tetrahydroisoquinoline formate] | 0.73 nM | 121 nM |
| CN(C)Cc1cc(-c2cnc3[nH]cc(C(=O)NCC4(CO)CCC4)c3c2)cc2c1COCC2 [Compound Z107, 5-(8-((dimethylamino)methyl)isochroman-6-yl)-N-((1-(hydroxymethyl)cyclobutyl)methyl)-1H-pyrrolo[2,3-b]pyridine-3-carboxamide] | 5.79 nM | 525 nM |
| Cc1c[nH]c2ncc(-c3cc4c(c([C@@H]5CCCN5)c3)CN(C(=O)C3CCCCC3)CC4)cc12 [Compound Z125] | 1.43 nM | 301 nM |
| CC(=O)N1CCc2cc(-c3cnc4[nH]cc(C)c4c3)cc([C@@H]3COCCN3)c2C1 (single isomer, unassigned) [Compound Z119-1] | 1.06 nM | 390 nM |
| c1cncc(-c2c[nH]c3ncc(-c4cc5c(c([C@@H]6CCCN6)c4)COCC5)cc23)c1 [Compound Z199, (S)-3-(pyridin-3-yl)-5-(8-(pyrrolidin-2-yl)isochroman-6-yl)-1H-pyrrolo[2,3-b]pyridine] | 0.32 nM | 117 nM |
| Cc1c[nH]c2ncc(-c3cc4c(c([C@@H]5CCCN5)c3)CN(C(=O)c3cnn(CC(F)F)c3)CC4)cc12 [Compound Z306, (S)-[1-(2,2-difluoroethyl)pyrazol-4-yl]-[6-(3-methyl-1H-pyrrolo[2,3-b]pyridin-5-yl)-8-[pyrrolidin-2-yl]-3,4-dihydro-1H-isoquinolin-2-yl]methanone] | 0.64 nM | 170 nM |
| Cc1c[nH]c2ncc(-c3cc4c(c([C@@H]5CCCN5)c3)CCN(CC3CCOCC3)C4)cc12 [Compound Z402, 7-(3-methyl-1H-pyrrolo[2,3-h]pyridin-5-yl)-2-(3,4,5,6-tetrahydro-2H-pyran-4-ylmethyl)-5-[(2S)-tetrahydro-1H-pyrrol-2-yl]-1,2,3,4-tetrahydroisoquinoline] | 1.2 nM | 454 nM |
| Cc1c[nH]c2ncc(-c3cc4c(c([C@@H]5CCCN5)c3)CCN(S(C)(=O)=O)C4)cc12 [Compound Z88-1, (S)-7-(3-methyl-1H-pyrrolo[2,3-b]pyridin-5-yl)-2-(methylsulfonyl)-5-(pyrrolidin-2-yl)-1,2,3,4-tetrahydroisoquinoline] | 0.38 nM | 91.3 nM |
| Cc1ccc(-c2c[nH]c3ncc(-c4cc5c(c([C@@H]6CCCN6)c4)COCC5)cc23)cn1 [Compound Z212, (S)-3-(6-methylpyridin-3-yl)-5-(8-(pyrrolidin-2-yl)isochroman-6-yl)-1H-pyrrolo[2,3-b]pyridine] | 3.76 nM | 909 nM |
| Cc1c[nH]c2ncc(-c3cc(C4CCCN4)c4cnccc4c3)cc12 (stereo not shown) [Compound Z3, 6-(3-methyl-1H-pyrrolo[2,3-b]pyridin-5-yl)-8-(pyrrolidin-2-yl)isoquinoline formate] | 4.34 nM | 853 nM |
| Cc1cc(C(=O)N2CCc3cc(-c4cnc5[nH]cc(C)c5c4)cc([C@@H]4CCCN4)c3C2)cc(C)n1 [Compound Z214, (S)-(6-(3-methyl-1H-pyrrolo[2,3-b]pyridin-5-yl)-8-(pyrrolidin-2-yl)-3,4-dihydroisoquinolin-2(1H)-yl) (2,6-dimethylpyridin-4-yl)methanone] | 1.04 nM | 181 nM |
| Cc1c[nH]c2ncc(-c3cc4c(c([C@@H]5CCCN5)c3)CN(S(=O)(=O)C3CC3)CC4)cc12 [Compound Z251, (S)-2-(cyclopropylsulfonyl)-6-(3-methyl-1H-pyrrolo[2,3-b]pyridin-5-yl)-8-(pyrrolidin-2-yl)-1,2,3,4-tetrahydroisoquinoline] | 0.49 nM | 131 nM |
